Paper PMC3325965, “Structural Basis of the Chromodomain of Cbx3 Bound to Methylated Peptides from Histone H1 and G9a” (PLoS ONE, 2012)
Square brackets hold non-standard residues; d marks the D form. Peptide text beside a SMILES is read from it. Lys(Me3) = C[N+](C)(C)CCCC[C@H](N)C(=O)O; Lys(Me2) = CN(C)CCCC[C@H](N)C(=O)O; Lys(Me) = CNCCCC[C@H](N)C(=O)O

Target: T1, human Cbx3 chromodomain (Homo sapiens, UniProt Q13185)
T1 construct: The chromodomain of Cbx3 (29–86) was subcloned into a pET-28a-MHL vector; His tag (TEV-cleavable, pET-28a-MHL) (N, cleaved yes); made in house
T1 sequence (Q13185 29-86): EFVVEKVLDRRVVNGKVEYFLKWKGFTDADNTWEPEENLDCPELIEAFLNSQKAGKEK
Test: Isothermal titration calorimetry (ITC) of methylated peptides binding to Cbx3 chromodomain
Design: key to Kd peptide: N/B: No binding was detected
Settings: Cbx3 chromodomain (residues 29–86), 60 µl of peptide solution (1–2 mM) injected into cell with 40–100 mM protein, 20 mM Tris–HCl, pH 7.5, 150 mM NaCl, one-site binding model
Source text: Chromodomain has been identified to be a methyl-lysine binding motif involved in transcription regulation, [28]. Many chromodomain-containing proteins, such as HP1 proteins and Polycomb group proteins, were reported to recognize methylated histone tails, [13], [17], [29]. Besides methylated histone H3K9, Cbx3, also known as HP1γ, can also bind to methylated Lys26 of histone H1 and methylated Lys185 of G9a, [22], [23]. To elucidate the binding affinity of Cbx3 chromodomain to these two methylated sites, isothermal titration calorimetry (ITC) assay was performed using histone H1K26 and G9aK185 peptides bearing different lysine methylation states as substrates. […] (Table 1).
Isothermal titration calorimetry measurements were performed as reported previously. Experiments were carried out by injecting 60 µl of peptide solution (1–2 mM) into a sample cell containing […] protein of Cbx3 chromodomain in 20 mM Tris–HCl, pH 7.5, 150 mM NaCl. The ITC measurements were fit to a one-site binding model using Origin Software (MicroCal Inc.)

| Kd | Kd peptide | Compound | also measured |
| --- | --- | --- | --- |
| 28 µM | – | CNCCCC[C@H](NC(=O)[C@H](CCCNC(=N)N)NC(=O)[C@H](C)NC(=O)[C@H](CCCNC(=N)N)NC(=O)[C@H](Cc1c[nH]cn1)NC(=O)[C@@H](NC(=O)[C@@H](N)CCCCN)C(C)C)C(=O)N[C@H](C(=O)N[C@@H](CCSC)C(=O)N[C@@H](CO)C(=O)N[C@@H](CCCCN)C(=O)N1CCC[C@H]1C(=O)O)[C@@H](C)O [G9a(179–190) me1] (H-KVHRAR[Lys(Me)]TMSKP-OH) | – |
| 9 µM | – | CSCC[C@H](NC(=O)[C@@H](NC(=O)[C@H](CCCCN(C)C)NC(=O)[C@H](CCCNC(=N)N)NC(=O)[C@H](C)NC(=O)[C@H](CCCNC(=N)N)NC(=O)[C@H](Cc1c[nH]cn1)NC(=O)[C@@H](NC(=O)[C@@H](N)CCCCN)C(C)C)[C@@H](C)O)C(=O)N[C@@H](CO)C(=O)N[C@@H](CCCCN)C(=O)N1CCC[C@H]1C(=O)O [G9a(179–190) me2] (H-KVHRAR[Lys(Me2)]TMSKP-OH) | – |
| 14 µM | – | CSCC[C@H](NC(=O)[C@@H](NC(=O)[C@H](CCCC[N+](C)(C)C)NC(=O)[C@H](CCCNC(=N)N)NC(=O)[C@H](C)NC(=O)[C@H](CCCNC(=N)N)NC(=O)[C@H](Cc1c[nH]cn1)NC(=O)[C@@H](NC(=O)[C@@H](N)CCCCN)C(C)C)[C@@H](C)O)C(=O)N[C@@H](CO)C(=O)N[C@@H](CCCCN)C(=O)N1CCC[C@H]1C(=O)O [G9a(179–190) me3] (H-KVHRAR[Lys(Me3)]TMSKP-OH) | – |
| – | N/B | KVHRARK^185TMSKP [G9a(179–190) unmodified, histone methyltransferase G9a peptide, residues 179–190, without modification] | Kd peptide (listed as G9aK185): did not exhibit detectable binding |
| – | N/B | TPVKKKARK^26SAG [H1.4(18–29) me1, histone H1.4 peptide, residues 18–29, mono-methylated at Lys26] | – |
| – | N/B ^* | TPVKKKARK^26SAG [H1.4(18–29) unmodified, histone H1.4 peptide, residues 18–29, without modification] | Kd peptide (listed as H1K26): did not exhibit detectable binding |
